The target in the test is T1, hFXR (Homo sapiens, UniProt Q96RI1).
T1 construct: expressed in transfected cells; host or cells: CV-1 cells
T1 sequence (Q96RI1 1-486): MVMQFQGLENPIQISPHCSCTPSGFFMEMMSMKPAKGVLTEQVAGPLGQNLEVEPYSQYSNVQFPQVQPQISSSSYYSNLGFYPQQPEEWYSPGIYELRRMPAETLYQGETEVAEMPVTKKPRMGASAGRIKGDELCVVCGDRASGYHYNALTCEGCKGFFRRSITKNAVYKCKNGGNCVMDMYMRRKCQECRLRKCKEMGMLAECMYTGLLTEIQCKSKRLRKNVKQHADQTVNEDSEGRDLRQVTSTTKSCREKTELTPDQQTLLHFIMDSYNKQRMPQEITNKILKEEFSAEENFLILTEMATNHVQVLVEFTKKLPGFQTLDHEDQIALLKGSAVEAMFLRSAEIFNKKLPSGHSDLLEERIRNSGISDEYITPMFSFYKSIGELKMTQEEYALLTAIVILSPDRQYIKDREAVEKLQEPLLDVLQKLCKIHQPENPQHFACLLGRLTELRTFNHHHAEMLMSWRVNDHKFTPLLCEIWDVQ
T1 sequence (P19793 1-462 partner): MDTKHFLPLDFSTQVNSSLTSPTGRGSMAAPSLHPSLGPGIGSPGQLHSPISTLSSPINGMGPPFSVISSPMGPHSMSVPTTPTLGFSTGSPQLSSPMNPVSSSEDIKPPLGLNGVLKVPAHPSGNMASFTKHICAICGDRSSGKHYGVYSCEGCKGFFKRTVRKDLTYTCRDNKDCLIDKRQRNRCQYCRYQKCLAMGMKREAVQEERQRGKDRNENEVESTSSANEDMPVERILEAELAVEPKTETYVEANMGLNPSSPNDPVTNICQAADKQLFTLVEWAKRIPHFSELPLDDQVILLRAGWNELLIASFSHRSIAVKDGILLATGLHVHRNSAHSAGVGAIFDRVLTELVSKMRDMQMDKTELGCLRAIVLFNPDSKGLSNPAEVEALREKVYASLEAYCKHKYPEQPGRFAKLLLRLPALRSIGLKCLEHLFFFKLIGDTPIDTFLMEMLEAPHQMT
Nature of the test: In Vitro FXR Assay (TK): hFXR/hRXR TK-ECRE-luc reporter in transfected CV-1 cells. Conditions: CV-1 cells transfected with hFXR, hRXR, 18 hrs incubation, luminescence, maximum efficacy <25% of Fexarmine control also classified as ‘+’. In kind it is cell-based. On the procedure:
Example B-1: In Vitro FXR Assay (TK)
CV-1 cells were seeded at a density of 2,000,000 cells in a T175 flask with DMEM+10% charcoal double-stripped FBS and incubated at 37° C. in 5% CO2 for 18 h (O/N).
After 18 h of incubation, the medium in the T175 flask was changed with fresh DMEM+10% charcoal super-stripped serum. In a polypropylene tube, 2500 μL OptiMEM (Life Technologies, Cat #31985-062) was combined with expression plasmids for hFXR, hRXR, TK-ECRE-luc and pCMX-YFP. The tube was then briefly vortexed and incubated at room temperature for 5 minutes. Transfection reagent (X-tremeGENE HP from Roche, Cat #06 366 236 001) was added to the OptiMEM/plasmid mixture vortexed and incubated at room temperature for 20 minutes. Following incubation, the transfection reagent/DNA mixture complex was added to cells in the T175 flask and the cells were incubated at 37° C. in 5% CO2 for 18 h (0/N).
Compounds were serially diluted in DMSO and added to transfected CV-1 cells. The cells were then incubated for 18 hrs. The next day cells were lysed and examined for luminescence.

Each structure is given as a SMILES string.

What is called EC50 is the concentration at which the effect is half-maximal. Low values mean greater potency, high ones weaker potency. Take `COc1ccc([C@H]2CC[C@@H](CN(c3cccc(-c4coc(C5CC5)n4)c3)C(=O)[C@H]3CC[C@H](O)CC3)CC2)nc1C` [Compound 10.10, trans-N-(3-(2-Cyclopropyloxazol-4-yl)phenyl)-4-hydroxy-N-((cis-4-(5-methoxy-6-methylpyridin-2-yl)cyclohexyl)methyl) cyclohexanecarboxamide]: the EC50 is ≥ 1000 nM. Under `COc1ccc([C@H]2CC[C@H](CN(c3cccc(-c4nsc(C5CC5)n4)c3)C(=O)[C@H]3CC[C@H](O)CC3)CC2)cc1C` [Compound 2.12, trans-N-(3-(5-Cyclopropyl-1,2,4-thiadiazol-3-yl)phenyl)-4-hydroxy-N-((trans-4-(4-methoxy-3-methylphenyl)cyclohexyl)methyl)cyclohexanecarboxamide] stands 500 to 1000 nM; under `COc1ccc(C23CCC(CN(c4cccc(-c5coc(C6CC6)n5)c4)C(=O)[C@H]4CC[C@H](O)CC4)(CC2)CC3)cc1C` [Compound 10], ≤ 500 nM. Take `COc1ccc([C@H]2CC[C@H](CN(c3cccc(-n4cnc(C)n4)c3)C(=O)[C@H]3CC[C@H](O)CC3)CC2)cc1C` [Compound 7, trans-4-Hydroxy-N-((trans-4-(4-methoxy-3-methylphenyl)cyclohexyl)methyl)-N-(3-(3-methyl-1-1,2,4-triazol-1-yl)phenyl)cyclohexanecarboxamide]: the EC50 was in the range of 500 to 1000 nM. As for `COc1ccc([C@H]2CC[C@H](CN(c3cccc(C#Cc4cnn(C)n4)c3)C(=O)[C@H]3CC[C@H](O)CC3)CC2)cc1C` [Compound 12.01, trans-4-Hydroxy-N-((trans-4-(4-methoxy-3-methylphenyl)cyclohexyl)methyl)-N-(3-((2-methyl-2H-1,2,3-triazol-4-yl)ethynyl)phenyl)cyclohexanecarboxamide], the figure is ≤ 500 nM; as for `COc1ccc([C@H]2CC[C@H](CN(c3cccc(-c4cncc(C(F)(F)F)c4)c3)C(=O)[C@H]3CC[C@H](O)CC3)CC2)cc1C` [Compound 1.05, trans-4-Hydroxy-N-((trans-4-(4-methoxy-3-methylphenyl)cyclohexyl)methyl)-N-(3-(5-(trifluoromethyl)pyridine-3-yl)phenyl)cyclohexanecarboxamide], ≥ 1000 nM. `COc1ccc([C@H]2CC[C@H](CN(c3cccc(-n4ncc(C)n4)c3)C(=O)[C@H]3CC[C@H](O)CC3)CC2)cc1C` [Compound 9.10, trans-4-Hydroxy-N-((trans-4-(4-methoxy-3-methylphenyl)cyclohexyl)methyl)-N-(3-(4-methyl-2H-1,2,3-triazol-2-yl)phenyl)cyclohexanecarboxamide]: the EC50 is ≥ 1000 nM. With `COc1ccc([C@H]2CC[C@H](CN(c3cccc(-c4ccc(C(F)(F)F)nc4)c3)C(=O)[C@H]3CC[C@H](O)CC3)CC2)cc1C` [Compound 1.04, trans-4-Hydroxy-N-((trans-4-(4-methoxy-3-methylphenyl)cyclohexyl)methyl)-N-(3-(6-(trifluoromethyl)pyridine-3-yl)phenyl)cyclohexanecarboxamide], the EC50 is ≤ 500 nM. As for `COc1ccc([C@H]2CC[C@H](CN(c3cccc(-c4cn(C)cn4)c3)C(=O)[C@H]3CC[C@H](O)CC3)CC2)cc1C` [Compound 2.11, trans-4-Hydroxy-N-((trans-4-(4-methoxy-3-methylphenyl)cyclohexyl)methyl)-i-(3-(1-methyl-1H-imidazol-4-yl)phenyl)cyclohexanecarboxamide], the EC50 was ≥ 1000 nM. As for `CCc1nc(-c2ccnc(N(C[C@H]3CC[C@H](c4ccc(OC)c(C)n4)CC3)C(=O)[C@H]3CC[C@H](O)CC3)c2)co1` [Compound 10.22, trans-N-(4-(2-Ethyloxazol-4-yl)pyridin-2-yl)-4-hydroxy-N-((trans-4-(5-methoxy-6-methylpyridin-2-yl)cyclohexyl)methyl) cyclohexanecarboxamide], the EC50 was ≤ 500 nM.

As for `COc1ccc([C@H]2CC[C@H](CN(c3cccc(-c4ccc(N(C)C)nc4)c3)C(=O)[C@H]3CC[C@H](O)CC3)CC2)cc1C` [Compound 1, trans-N-(3-(6-(Dimethylamino)pyridine-3-yl)phenyl)-4-hydroxy-N-((trans-4-(4-methoxy-3-methylphenyl)cyclohexyl)methyl)cyclohexanecarboxamide], the EC50 was ≤ 500 nM. In the case of `COc1ccc([C@H]2CC[C@H](CN(c3cccc(-c4cnc(C)o4)c3)C(=O)[C@H]3CC[C@H](O)CC3)CC2)cc1C` [Compound 8, trans-4-Hydroxy-N-((trans-4-(4-methoxy-3-methylphenyl)cyclohexyl)methyl)-N-(3-(2-methyloxazol-5-yl)phenyl)cyclohexanecarboxamide], the EC50 is ≤ 500 nM. `COc1ccc([C@H]2CC[C@H](CN(c3cccc(-c4nc(C)no4)c3)C(=O)[C@H]3CC[C@H](O)CC3)CC2)cc1C` [Compound 9.02, trans-4-Hydroxy-N-((trans-4-(4-methoxy-3-methylphenyl)cyclohexyl)methyl)-N-(3-(3-methyl-1,2,4-oxadiazol-5-yl)phenyl)cyclohexanecarboxamide] showed an EC50 of 500 to 1000 nM. As to `COc1ccc([C@H]2CC[C@H](CN(c3cc(-c4coc(C(C)C)n4)ccn3)C(=O)[C@H]3CC[C@H](O)CC3)CC2)nc1C` [Compound 10.17, trans-4-Hydroxy-N-(4-(2-isopropyloxazol-4-yl)pyridine-2-yl)-N-((trans-4-(5-methoxy-6-methylpyridin-2-yl)cyclohexyl)methyl) cyclohexanecarboxamide], the EC50 is ≤ 500 nM. Consider `COc1ccc(C23CCC(CN(c4cccc(-c5cc(C6CC6)ns5)c4)C(=O)[C@H]4CC[C@H](O)CC4)(CC2)CC3)cc1C` [Compound 10.01, trans-N-(3-(3-Cyclopropylisothiazol-5-yl)phenyl)-4-hydroxy-N-((4-(4-methoxy-3-methylphenyl)bicyclo[2.2.2]octan-1-yl)methyl)cyclohexanecarboxamide], for which the EC50 is ≤ 500 nM. As for `COc1ccc([C@H]2CC[C@H](CN(c3cccc(-c4cc(C)on4)c3)C(=O)[C@H]3CC[C@H](O)CC3)CC2)cc1C` [Compound 9.08, trans-4-Hydroxy-N-((trans-4-(4-methoxy-3-methylphenyl)cyclohexyl)methyl)-N-(3-(5-methylisoxazol-3-yl)phenyl)cyclohexanecarboxamide], the figure is ≤ 500 nM. Regarding `COc1ccc([C@H]2CC[C@H](CN(c3cccc(-c4ccsn4)c3)C(=O)[C@H]3CC[C@H](O)CC3)CC2)cc1C` [Compound 2.07, trans-4-Hydroxy-N-(3-(isothiazol-3-yl)phenyl)-N-((trans-4-(4-methoxy-3-methylphenyl)cyclohexyl)methyl)cyclohexanecarboxamide], the EC50 lay within 500 to 1000 nM. On to `COc1ccc([C@H]2CC[C@H](CN(c3cccc(-n4ccc(C)c4)c3)C(=O)[C@H]3CC[C@H](O)CC3)CC2)cc1C` [Compound 4], for which the EC50 is ≤ 500 nM. With `COc1ccc([C@H]2CC[C@H](CN(c3cccc(C#Cc4ccccn4)c3)C(=O)[C@H]3CC[C@H](O)CC3)CC2)cc1C` [Compound 11.04, trans-4-Hydroxy-N-((trans-4-(4-methoxy-3-methylphenyl)cyclohexyl)methyl)-N-(3-(pyridine-2-ylethynyl)phenyl)cyclohexanecarboxamide], the EC50 was ≤ 500 nM. Under `COc1ccc([C@H]2CC[C@H](CN(c3cc(-c4coc(C5CC5)n4)ccn3)C(=O)[C@H]3CC[C@H](O)CC3)CC2)nc1C` [Compound 10.09, trans-N-(4-(2-Cyclopropyloxazol-4-yl)pyridine-2-yl)-4-hydroxy-N-((trans-4-(5-methoxy-6-methylpyridin-2-yl)cyclohexyl)methyl) cyclohexanecarboxamide] stands ≤ 500 nM.

Turning to `COc1ccc([C@H]2CC[C@H](CN(c3cccc(-n4cnc(C)c4)c3)C(=O)[C@H]3CC[C@H](O)CC3)CC2)cc1C` [Compound 9.01, trans-4-Hydroxy-N-((trans-4-(4-methoxy-3-methylphenyl)cyclohexyl)methyl)-N-(3-(4-methyl-1H-imidazol-1-yl)phenyl)cyclohexanecarboxamide], the EC50 lay within 500 to 1000 nM.

Source of the values: patent US20200131129A1, “FARNESOID X RECEPTOR AGONISTS AND USES THEREOF” (Metacrine, Inc., priority 2017, published 2020).
